Our source for the average biofilm biomass values is patent US20250345483A1, “WIDE RANGE SYNTHETIC PEPTIDE NUCLEIC ACIDS AND THEIR APPLICATIONS” (Carilion Clinic, priority 2024, published 2025).

The subject of the assay is gentamicin-resistant P. aeruginosa, Pa383-ΔrahU::GM. Put plainly: Biofilm biomass, aqueous or dried onto 96-well plates. The format is cell-based, Pseudomonas aeruginosa. The note with it: 32 h incubation. The procedure:
An equimolar (10 μM per antisense-PNA) cocktail of the antisense-PNAs rsmA 0, amrZ 0, and rpoS 0 with 50% methanol (MeOH) (total volume: 60 μL) was dried onto a 96-well clear flat bottom polystyrene tissue culture-treated microplate in a Fisherbrand™ Isotemp™ Digital Dry Bath/Block Heater at 37° C. 60 μL of 100 μg/mL gentamicin was also dried onto wells. Gentamicin-resistant P. aeruginosa, Pa383-ΔrahU::GM was subcultured as described above (Rao, J. et al., 2011)
Biofilms were stained with 175 μL 0.1% crystal violet (CV), rinsed with sterile water until the water ran clear, solubilized in 100 μL of 33% glacial acetic acid (GAA), and absorbance was measured using a spectrophotometer at 590 nm (Wilson, C. et al., 2017).

gentamicin: the average biofilm biomass entry reads like this: (aq, vs untreated in M9+ media) “no statistically significant difference”; (dried in MeOH, vs dried MeOH control wells) “no statistically significant difference”.
